Measurements as given in US8871753B2, “Macrocyclic compounds and their use as kinase inhibitors” (Incyte Corporation, priority 2008, dated 2014).
Where a name gives a salt, the structure may show the parent alone. Read-outs that look alike come from different tables or passages of the source.

Columns and labels:
Type in all cases: biochemical
[1] = target: T1, human JAK3 (a.a. 781-1124) (Homo sapiens, UniProt P52333); test: In vitro JAK kinase assay (HTRF, phosphorylation of a biotinylated peptide), JAK3
T1 construct: JAK3 (a.a. 781-1124); His tag (N); made in house; host or cells: insect cells (baculovirus)
Summary of the method: (§1)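 Phosphorylation of a biotinylated peptide by the JAK kinase domain, detected by HTRF with Eu-Py20 and SA-APC. ATP was 90 μM for JAK1, 30 μM for JAK2 and 3 μM for JAK3. Reactions ran 1 h at room temperature and were stopped with EDTA, followed by 40 min antibody binding.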

[2] = target: T2, Recombinant Human Anaplastic Lymphoma Kinase (Homo sapiens, UniProt Q9UM73); test: ALK HTRF kinase assay
T2 construct: purchased Invitrogen, Carlsbad, Calif
Description: Materials: Recombinant Human Anaplastic Lymphoma Kinase was purchased from Invitrogen, Carlsbad, Calif. Peptide substrate (Biotin-[…]-amide) was custom synthesized at EZBiolab, Westfield, Ind. Streptavidin conjugated SureLight-Allophycocyania and LANCE Eu-W1024 labeled anti-phosphotyrosine antibody were from Perkin-Elmer, Boston, Mass. Microplates were from Corning Inc., Acton, Mass. All other reagents were from Sigma, St. Louis, Mo.
Plates were read in Fusion α-FP instrument (Perkin-Elmer). […] Signal=Bottom+(Top−Bottom)/(1+10^((Log(IC50)−Log [I])*Hill Slope) Bottom and Top refer to the post and pre-transition baselines, respectively.

TYK2 = TYK2 (Homo sapiens, UniProt P29597); test: TYK2 kinase inhibition (Table A1)
[3] = target: T3, human JAK2 (a.a. 828-1132) (Homo sapiens, UniProt O60674); test: In vitro JAK kinase assay (HTRF, phosphorylation of a biotinylated peptide), JAK2
T3 construct: JAK2 (a.a. 828-1132); His tag (N); made in house; host or cells: insect cells (baculovirus)
Summary of the method: as §1

[4] = target: T4, human JAK1 (a.a. 837-1142) (Homo sapiens, UniProt P23458); test: In vitro JAK kinase assay (HTRF, phosphorylation of a biotinylated peptide), JAK1; conditions: read-out: JAK1 IC50
T4 construct: human JAK1 (a.a. 837-1142); His tag (N); made in house; host or cells: insect cells (baculovirus)
Summary of the method: as §1

[5] = method AA1 (3 μM ATP) or AA2 (1000 μM ATP), not stated per value
[6] = compound at 500 nM or 1 mM, 90 μM ATP
[7] = method AA1 (30 μM ATP) or AA2 (1000 μM ATP), not stated per value
[8] = method AA1 (90 μM ATP) or AA2 (1000 μM ATP), not stated per value
[9] = Table B1, cells without percent sign
[10] = compound at a concentration of 500 nM or 1 mM (not specified), cells shown as percentage

T4 sequence (P23458 849-1154): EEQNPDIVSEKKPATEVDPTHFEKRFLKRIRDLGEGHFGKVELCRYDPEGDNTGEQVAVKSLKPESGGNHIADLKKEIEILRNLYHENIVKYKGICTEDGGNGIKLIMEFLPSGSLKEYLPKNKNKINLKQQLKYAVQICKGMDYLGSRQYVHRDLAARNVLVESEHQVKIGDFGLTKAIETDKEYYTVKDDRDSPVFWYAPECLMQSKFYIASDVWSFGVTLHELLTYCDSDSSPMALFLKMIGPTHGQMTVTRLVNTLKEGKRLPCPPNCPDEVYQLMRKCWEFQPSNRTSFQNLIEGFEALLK
T1 sequence (P52333 781-1124): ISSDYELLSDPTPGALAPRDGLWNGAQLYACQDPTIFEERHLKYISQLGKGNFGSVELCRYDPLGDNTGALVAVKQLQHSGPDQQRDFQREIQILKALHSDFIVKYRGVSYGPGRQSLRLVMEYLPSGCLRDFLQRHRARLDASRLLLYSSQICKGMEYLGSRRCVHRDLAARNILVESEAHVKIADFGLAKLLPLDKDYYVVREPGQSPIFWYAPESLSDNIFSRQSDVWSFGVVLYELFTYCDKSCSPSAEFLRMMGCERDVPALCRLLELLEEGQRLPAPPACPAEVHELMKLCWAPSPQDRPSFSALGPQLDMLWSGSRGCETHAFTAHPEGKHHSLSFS
T3 sequence (O60674 828-1132): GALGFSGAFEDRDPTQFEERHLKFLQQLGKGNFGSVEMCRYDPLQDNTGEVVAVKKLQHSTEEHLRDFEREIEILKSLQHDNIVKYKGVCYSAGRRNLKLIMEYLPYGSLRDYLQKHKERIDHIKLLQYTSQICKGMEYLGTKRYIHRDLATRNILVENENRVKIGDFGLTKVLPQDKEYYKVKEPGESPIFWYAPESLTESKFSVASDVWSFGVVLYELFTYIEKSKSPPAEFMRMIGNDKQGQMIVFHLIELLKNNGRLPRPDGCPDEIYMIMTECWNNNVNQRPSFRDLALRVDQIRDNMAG
Chain of TYK2 (P29597 whole entry): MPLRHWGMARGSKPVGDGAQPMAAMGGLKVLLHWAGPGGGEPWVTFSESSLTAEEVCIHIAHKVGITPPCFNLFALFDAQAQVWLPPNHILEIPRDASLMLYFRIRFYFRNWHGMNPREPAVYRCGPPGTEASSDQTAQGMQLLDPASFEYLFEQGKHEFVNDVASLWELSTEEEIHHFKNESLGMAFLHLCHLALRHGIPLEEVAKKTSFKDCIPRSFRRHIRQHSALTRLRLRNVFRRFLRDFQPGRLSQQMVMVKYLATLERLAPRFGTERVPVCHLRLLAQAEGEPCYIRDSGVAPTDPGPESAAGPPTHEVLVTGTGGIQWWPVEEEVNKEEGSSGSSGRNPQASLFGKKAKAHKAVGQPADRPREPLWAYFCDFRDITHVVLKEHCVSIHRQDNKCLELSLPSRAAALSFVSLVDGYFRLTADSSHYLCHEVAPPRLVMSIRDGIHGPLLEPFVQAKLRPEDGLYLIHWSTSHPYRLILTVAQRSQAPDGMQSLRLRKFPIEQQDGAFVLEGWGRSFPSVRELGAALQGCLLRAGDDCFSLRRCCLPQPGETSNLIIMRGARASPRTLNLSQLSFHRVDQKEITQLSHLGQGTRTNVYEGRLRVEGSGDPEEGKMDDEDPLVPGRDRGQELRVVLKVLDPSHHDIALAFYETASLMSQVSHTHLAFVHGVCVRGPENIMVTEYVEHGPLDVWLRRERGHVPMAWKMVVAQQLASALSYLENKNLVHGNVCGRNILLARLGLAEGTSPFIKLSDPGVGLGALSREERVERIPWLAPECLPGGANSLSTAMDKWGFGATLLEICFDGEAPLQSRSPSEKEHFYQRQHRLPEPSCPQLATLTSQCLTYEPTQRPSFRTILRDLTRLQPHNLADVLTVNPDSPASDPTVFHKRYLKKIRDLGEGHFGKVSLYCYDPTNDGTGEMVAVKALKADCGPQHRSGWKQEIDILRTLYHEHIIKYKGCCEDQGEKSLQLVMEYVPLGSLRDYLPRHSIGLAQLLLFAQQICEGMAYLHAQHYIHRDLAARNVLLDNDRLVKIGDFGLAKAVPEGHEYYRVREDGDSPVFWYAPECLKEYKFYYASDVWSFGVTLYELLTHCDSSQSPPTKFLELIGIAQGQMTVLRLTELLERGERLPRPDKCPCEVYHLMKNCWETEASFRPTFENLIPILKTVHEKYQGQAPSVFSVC
T2 sequence (Q9UM73 19-1620): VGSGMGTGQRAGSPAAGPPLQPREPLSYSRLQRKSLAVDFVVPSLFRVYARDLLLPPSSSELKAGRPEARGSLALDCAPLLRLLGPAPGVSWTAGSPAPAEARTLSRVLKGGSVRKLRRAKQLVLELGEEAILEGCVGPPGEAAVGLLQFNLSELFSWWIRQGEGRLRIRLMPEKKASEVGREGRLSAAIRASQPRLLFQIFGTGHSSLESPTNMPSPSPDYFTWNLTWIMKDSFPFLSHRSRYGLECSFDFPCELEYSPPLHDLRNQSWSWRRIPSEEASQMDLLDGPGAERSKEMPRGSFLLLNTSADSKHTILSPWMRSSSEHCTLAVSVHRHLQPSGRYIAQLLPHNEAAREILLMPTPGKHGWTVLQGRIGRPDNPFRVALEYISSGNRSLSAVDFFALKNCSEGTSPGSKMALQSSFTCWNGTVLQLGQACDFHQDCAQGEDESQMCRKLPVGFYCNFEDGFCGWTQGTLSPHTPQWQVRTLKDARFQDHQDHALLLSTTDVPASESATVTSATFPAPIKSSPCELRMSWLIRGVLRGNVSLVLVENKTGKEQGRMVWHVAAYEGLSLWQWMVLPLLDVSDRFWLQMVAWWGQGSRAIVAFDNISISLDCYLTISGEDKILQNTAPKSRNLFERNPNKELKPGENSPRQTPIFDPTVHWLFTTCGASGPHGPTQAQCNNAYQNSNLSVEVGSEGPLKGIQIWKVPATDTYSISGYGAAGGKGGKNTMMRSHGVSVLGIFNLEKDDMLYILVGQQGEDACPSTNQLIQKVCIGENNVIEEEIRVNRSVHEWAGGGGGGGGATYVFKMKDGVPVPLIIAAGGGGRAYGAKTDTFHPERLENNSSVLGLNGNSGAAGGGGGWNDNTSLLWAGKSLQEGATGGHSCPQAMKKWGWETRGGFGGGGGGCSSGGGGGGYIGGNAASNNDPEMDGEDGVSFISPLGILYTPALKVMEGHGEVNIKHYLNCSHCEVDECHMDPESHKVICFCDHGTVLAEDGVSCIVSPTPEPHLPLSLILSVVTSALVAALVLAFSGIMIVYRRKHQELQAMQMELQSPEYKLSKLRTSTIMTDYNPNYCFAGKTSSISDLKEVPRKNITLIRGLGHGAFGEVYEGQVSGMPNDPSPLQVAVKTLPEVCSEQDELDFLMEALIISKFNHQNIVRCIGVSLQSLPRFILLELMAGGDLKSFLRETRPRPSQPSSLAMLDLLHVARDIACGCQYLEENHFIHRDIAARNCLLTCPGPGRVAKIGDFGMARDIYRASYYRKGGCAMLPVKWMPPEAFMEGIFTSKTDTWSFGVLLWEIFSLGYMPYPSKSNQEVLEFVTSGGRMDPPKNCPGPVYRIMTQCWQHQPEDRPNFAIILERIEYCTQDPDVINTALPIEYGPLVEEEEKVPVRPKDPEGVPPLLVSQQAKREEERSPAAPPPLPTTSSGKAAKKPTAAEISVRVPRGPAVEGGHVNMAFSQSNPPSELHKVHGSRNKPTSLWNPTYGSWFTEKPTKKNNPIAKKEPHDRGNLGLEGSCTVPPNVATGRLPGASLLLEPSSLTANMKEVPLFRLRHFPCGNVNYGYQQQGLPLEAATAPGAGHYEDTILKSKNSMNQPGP

| IC50 [1, 5] [nM] | ALK % of inhibition at a concentration of 500 nM or 1 mM [2, 6] [%] | IC50 [3, 7] [nM] | IC50 (TYK2; Table B1) [nM] | IC50 ([4]; Table B1) [nM] | IC50 ([3]; Table B1) [nM] | SMILES | other results |
| --- | --- | --- | --- | --- | --- | --- | --- |
| > 1000 | 5 | 220 | – | – | – | Cc1noc(C)c1C(=O)N1CCC(C(=O)Nc2ccc3cc2CCc2cccc(c2)Nc2ncc(Cl)c(n2)N3)CC1 [Example A34, N-[6-Chloro-2,4,8,22-tetraazatetracyclo[14.3.1.1(3,7).1(9,13)]docosa-1(20), 3(22),4,6,9(21),10,12,16,18-nonaen-12-yl]-1-[(3,5-dimethylisoxazol-4-yl)carbonyl]piperidine-4-carboxamide trifluoroacetate] | IC50 (TYK2): 343 nM; IC50 [4, 8]: 446 nM |
| – | – | – | – | – | – | O=S1(=O)Cc2cccc(c2)Nc2nc(ncc2Cl)Nc2cccc(c2)N1 [Example C8, 6-Chloro-15-thia-2,4,8,16,23-pentaazatetracyclo[15.3.1.1(3,7).1(9,13)]tricosa-1(21),3(23),4,6,9(22),10,12,17,19-nonaene 15,15-dioxide trifluoroacetate] | IC50 [1]: 242 nM; IC50 [2]: > 1000 nM; IC50 [3]: 66 nM |
| – | – | – | – | – | – | [O-][S+]1CCc2cccc(c2)Nc2ncc(Cl)c(n2)Nc2cccc1c2 (stereo not drawn) [Example D23, 6-Chloro-14-thia-2,4,8,23-tetraazatetracyclo[15.3.1.1(3,7).1(9,13)]tricosa-1(21),3(23),4,6,9(22),10,12,17,19-nonaene 14-oxide trifluoroacetate] | IC50 ([1]; Table D1): 21 nM; IC50 ([2]; Table D1, 90 μM ATP): 1210 nM; IC50 (TYK2; Table D1): 23 nM; IC50 ([3]; Table D1): 4.9 nM |
| > 100 | – | 54 | – | – | – | Cc1noc(C)c1NC(=O)N1CCC(CC(=O)Nc2ccc3cc2CCc2cncc(c2)Nc2ncc(Cl)c(n2)N3)CC1 [Example A19, bis(trifluoroacetate)] | ALK % of inhibition at a concentration of 500 nM or 1 mM ([2]; compound at 500 nM or 1 mM, 90 μM ATP, bis(trifluoroacetate)): 17%; IC50 [4, 8]: 17 nM |
| – | – | – | 0.51 | 0.15 | – | Cc1ccccc1S(=O)(=O)Nc1ccc2cc1CCc1cccc(c1)Nc1ncc(Cl)c(n1)N2 [Example B149, N-[6-Chloro-2,4,8,22-tetraazatetracyclo[14.3.1.1(3,7).1(9,13)]docosa-1(20), 3(22),4,6,9(21),10,12,16,18-nonaen-12-yl]-2-methylbenzenesulfonamide trifluoroacetate] | IC50 ([1]; Table B1): 2.4 nM; IC50 [2, 9]: 350 nM |
| > 200 | 27 | > 200 | – | – | – | N#Cc1ccc(C(=O)N2CCC(CC(=O)Nc3ccc4cc3CCc3cncc(c3)Nc3ncc(Cl)c(n3)N4)CC2)cc1 [Example A190, N-[6-Chloro-2,4,8,18,22-pentaazatetracyclo[14.3.1.1(3,7).1(9,13)]docosa-1(20),3(22),4,6,9(21),10,12,16,18-nonaen-12-yl]-2-[1-(4-cyanobenzoyl)piperidin-4-yl]acetamide bis(trifluoroacetate)] | IC50 (TYK2): > 200 nM |
| – | – | – | – | 119 | > 400 | O=C(Nc1ccc2cc1CCc1cncc(c1)Nc1ncc(Cl)c(n1)N2)N1CCN(c2ncc(C(F)(F)F)cc2Cl)CC1 [Example B302, N-[6-Chloro-2,4,8,18,22-pentaazatetracyclo[14.3.1.1(3,7).1(9,13)]docosa-1(20),3(22),4,6,9(21),10,12,16,18-nonaen-12-yl]-4-[3-chloro-5-(trifluoromethyl)pyridin-2-yl]piperazine-1-carboxamide tris(trifluoroacetate)] | IC50 ([1]; Table B1): > 400 nM; ALK % of inhibition at a concentration of 500 nM or 1 mM ([2]; percentage inhibition of the example compound at a concentration of 500 nM or 1 mM (not specified which)): 69% |
| 217 | 7 | 87 | – | – | – | CC(C)(C)OC(=O)N1CCN(C(=O)COc2ccc3cc2CCc2cccc(c2)Nc2ncc(Cl)c(n2)N3)CC1 [Example A17, tert-Butyl 4-({[6-chloro-2,4,8,22-tetraazatetracyclo[14.3.1.1(3,7).1(9,13)]docosa-1(20),3(22),4,6,9(21),10,12,16,18-nonaen-12-yl]oxy}acetyl)piperazine-1-carboxylate trifluoroacetate] | IC50 [4, 8]: 85 nM |
| > 200 | 15 | > 200 | – | – | – | COc1cccc(S(=O)(=O)N2CCC(CC(=O)Nc3ccc4cc3CCc3cccc(c3)Nc3ncc(Cl)c(n3)N4)CC2)c1 [Example A206, N-[6-Chloro-2,4,8,22-tetraazatetracyclo[14.3.1.1(3,7).1(9,13)]docosa-1(20),3(22),4,6,9(21),10,12,16,18-nonaen-12-yl]-2-{1-[(3-methoxyphenyl)sulfonyl]piperidin-4-yl}acetamide trifluoroacetate] | IC50 (TYK2): > 200 nM |
| – | – | – | 700 | 176 | 125 | Cn1ccc(C(=O)Nc2cc3cc(c2)Nc2nc(ncc2Cl)Nc2cccc(c2)CC3)n1 [Example B207, N-[6-Chloro-2,4,8,22-tetraazatetracyclo[14.3.1.1(3,7).1(9,13)]docosa-1(20),3(22),4,6,9(21),10,12,16,18-nonaen-11-yl]-1-methyl-1H-pyrazole-3-carboxamide trifluoroacetate] | IC50 [2, 9]: > 10000 nM |
| – | – | – | 8.1 | 8 | 8.4 | O=S(=O)(Nc1ccc2cc1CCc1cccc(c1)Nc1ncc(Cl)c(n1)N2)c1ccccc1C(F)(F)F [Example B164, N-[6-Chloro-2,4,8,22-tetraazatetracyclo[14.3.1.1(3,7).1(9,13)]docosa-1(20), 3(22),4,6,9(21),10,12,16,18-nonaen-12-yl]-2-(trifluoromethyl)benzenesulfonamide trifluoroacetate] | ALK % of inhibition at a concentration of 500 nM or 1 mM [2, 10]: 4.6% |
| – | – | – | 9.6 | 4 | 8.2 | CC(=O)NCCNC(=O)Nc1ccc2cc1CCc1cccc(c1)Nc1ncc(Cl)c(n1)N2 [Example B186, N-{2-[({[6-Chloro-2,4,8,22-tetraazatetracyclo[14.3.1.1(3,7).1(9,13)]docosa-1(20),3(22),4,6,9(21),10,12,16,18-nonaen-12-yl]amino}carbonyl)amino]ethyl}acetamide trifluoroacetate] | ALK % of inhibition at a concentration of 500 nM or 1 mM [2, 10]: 21% |
| > 400 | 15 | 244 | – | – | – | Cc1ccc(C#N)c(N2CCC(CC(=O)Nc3ccc4cc3CCc3cncc(c3)Nc3ncc(Cl)c(n3)N4)CC2)n1 [Example A238, N-[6-Chloro-2,4,8,18,22-pentaazatetracyclo[14.3.1.1(3,7).1(9,13)]docosa-1(20),3(22),4,6,9(21),10,12,16,18-nonaen-12-yl]-2-[1-(3-cyano-6-methylpyridin-2-yl)piperidin-4-yl]acetamide tris(trifluoroacetate)] | IC50 [4, 8]: 18 nM |
| – | – | – | 450 | 91 | 97 | CC(C)(C)OC(=O)N1CCC(NC(=O)Nc2ccc3cc2CCc2cccc(c2)Nc2ncc(Cl)c(n2)N3)CC1 [Example B180, tert-Butyl 4-[({[6-chloro-2,4,8,22-tetraazatetracyclo[14.3.1.1(3,7).1(9,13)]docosa-1(20),3(22),4,6,9(21),10,12,16,18-nonaen-12-yl]amino}carbonyl)amino]piperidine-1-carboxylate] | ALK % of inhibition at a concentration of 500 nM or 1 mM [2, 10]: 3.5% |
| – | – | – | – | – | – | Clc1cnc2nc1Nc1cccc(c1)NCc1cccc(c1)N2 [Example D16, 6-Chloro-2,4,8,14,22-pentaazatetracyclo[14.3.1.1(3,7).1(9,13)]docosa-1(20),3(22),4,6,9(21),10,12,16,18-nonaene bis(trifluoroacetate)] | IC50 ([1]; Table D1): 325 nM; IC50 ([2]; Table D1, 90 μM ATP): > 10000 nM; IC50 ([3]; Table D1): 113 nM; IC50 ([4]; Table D1): 144 nM |
